Source: patent publication US20110098554A1, “Monitoring of convection enhanced drug delivery” (priority 2004, published 2011)

Legend:
[1] = system: striatum of normal Sprague-Dawley (SD) rats; assay: Cytotoxic tissue response to CED by T2-weighted and diffusion-weighted MRI and histology
Method: The resultant solution was infused into the striatum of normal Sprague-Dawley (SD) rats (males, 250-300 grams). T1-weighted MR images were acquired immediately post treatment to assess the extent of convection. Additionally, T2-weighted and diffusion-weighted MR images were acquired 24 hours post treatment to assess the response of the tissue and its correlation to the extent of convection.
Under full anesthesia, a midline scalp incision was made to identify the bregma. A 1 mm burr hole was made in the right region of the skull, 3 mm anterior and 2 mm lateral to the bregma. A 33-gauge needle attached to a 1000 μl syringe (Gastight; Hamilton) was placed stereotactically 5.5 mm deep into the striatum. The infusion was performed using a BASI syringe pump at a rate of 1 μl/min for a duration ranging from […].
In order to obtain a wide range in volumes of distribution, the infusion times were varied between 17 to 60 minutes. 13 rats were treated with Carboplatin (4 mg/ml, 17 minutes infusion). […]
The volume (in cm^3) of the composition distribution was calculated from the T1-weighted MR images acquired immediately post CED treatment. […] The number of pixels in the ROIs was counted and multiplying by the volume of a single pixel. […]

C26 colon cancer tumors = assay: CED of high viscosity toxic infusates in C26 tumors in mice thigh, MRI; format: in vivo, balb-c mice
Method: Five balb-c mice, bearing large (over 2 cm in diameter) C26 colon cancer tumors in the thigh, were treated with CED of high viscosity toxic infusates. […] Two mice were treated with a high concentration combination of Ethanol and Cremaphore (150 μl Ethanol and 150 μl Cremaphore diluted with Saline to 1 ml) at infusion rate of 4 μl/min for 105 minutes.
Infusates were mixed with Gd (1:70) prior to treatment. MR images were acquired immediately post treatment to assess the distribution of the drug within the tumor.

malignant gliomas = conditions: first 24-48 hours post intratumoral CED, patients with recurrent malignant brain tumors; cited from earlier work

Row | Compound | enhancement in diffusion-weighted MR images ([1]; 24 hours post treatment, cases of efficient convection) | histology of en block-resected lesion ([1]; rat, in vivo) | tumor tissue response (T2 MRI 24 hours post treatment) (C26 colon cancer tumors; mouse of FIGS. 16, efficient CED) | tumor tissue response (T2 MRI 24 hours post treatment) (C26 colon cancer tumors; mouse of FIGS. 17, inefficient CED) | water diffusion changes on diffusion-weighted MRI (malignant gliomas)
1 | N.N.O=C([O-])C1(C(=O)[O-])CCC1.[Pt+2] [Carboplatin] | significant enhancement | – | – | – | –
2 | CC(=O)O[C@H]1C(=O)[C@@]2(C)[C@H]([C@H](OC(=O)c3ccccc3)[C@]3(O)C[C@H](OC(=O)[C@H](O)[C@@H](NC(=O)c4ccccc4)c4ccccc4)C(C)=C1C3(C)C)[C@]1(OC(C)=O)CO[C@@H]1C[C@@H]2O [Taxol®, Paclitaxel] | – | Severe damage covering most of the striatum | complete necrosis | no significant change in the tumor | clear changes
